Experimental data as given in patent US20080025917A1, “Methods for modulating formation and progression of cellulite” (priority 2006, published 2008).

Columns and labels:
[1] = test system: human primary dermal fibroblasts; assay: Attachment and spreading of primary dermal fibroblasts on a Type I collagen matrix; format: cell-based
Protocol: Assay of HF effects on contractile behavior of dermal fibroblasts. Previous studies have established that HF can modulate fibrosis in vivo, and regulate ECM production by cells in vitro. The studies described herein provide a simple assay to test the effects of HF and its putative mediators on the behavior of cells likely to provide the basis for the structural features of cellulite—dermal fibroblasts and myofibroblasts. When human primary dermal fibroblasts are cultured in a matrix of Type I collagen, mimicking the interstitial matrix of the dermis and hypodermis, they attach to the substratum and spread, exerting contractile force on the surrounding interstitial matrix (FIG. 2A).

TIF1β = target: T1, TIF1β (Mus musculus, UniProt Q62318); assay: HF-affinity resin binding / free-compound competition for TIF1β
T1 construct: endogenous in cells; host or cells: SV-MES cells (lysate)
From the text: The molecular mechanisms underlying the regulation of ECM by HF currently are not known. […] These proteins, TIF1β and Ruvbl2, are both transcriptional regulatory proteins. TIF1β is known to interact with transcription factors that regulate Type I collagen expression, providing the first molecular connection between HF and the regulation of an ECM gene. A brief description and data detailing the isolation and identification of HF binding proteins are provided below. […] This band was identified by tandem mass spectrometry as TIF1β. These HF binding proteins were isolated and identified by tandem mass spectrometry. Using this approach, the transcriptional co-repressor TIF1β (FIG. 4) was initially identified as an HF binding protein. A cDNA encoding TIF1β was also identified and used to confirm that TIF1β binds specifically to HF (FIG. 5). Cloned, tagged TIF1β was transfected into SV-MES cells and precipitated with HF-resin.

RuvBl2 = target: T2, RuvBl2 (Mus musculus, UniProt Q9WTM5); assay: HF affinity purification / tandem mass spectrometry, RuvBl2; format: binding
T2 construct: endogenous in cells; host or cells: SV-MES cell lysate (inferred from the same approach described)
From the text: TIF1β is a member of a family of transcriptional co-repressors (Chang, et al., Mol Cell Biol, vol. 18: 5880-87 (1998); Hsu, et al. Embo J., vol. 20: 2273-85 (2001); Le Douarin, et al. J Steroid Biochem Mol Biol 65, 43-50 (1998)). TIF1β interacts with a variety of transcription factors, including nuclear receptors, to mediate regulation of chromatin modification (Chang, et al., Mol Cell Biol, vol. 18: 5880-87 (1998); Hsu, et al. Embo J., vol. 20: 2273-85 (2001); Nomura, et al. J Biol Chem 279, 16715-26 (2004)). TIF1β interacts with a number of transcription factors known to regulate the synthesis of Type I collagen, providing a direct link between HF, TIF1β and the transcription of extracellular matrix genes. […] Ruvbl2, also known as Reptin, ECP51, Tip48, and Tip49b, is, like TIF1β, known to function in transcriptional regulation and chromatin re-modeling (Kanemaki, et al. J Biol Chem 274, 22437-44 (1999)). The identification of halofuginone's intracellular effectors, and the binding sites for halofuginone in those effectors, provides additional approaches to targeting the deposition of sub-dermal ECM. New classes of small molecules can be designed to target intracellular effectors such as TIF1β and RuvBl2, broadening the range of potential therapeutic agents for the treatment of cellulite.

[2] = test system: NMuMg murine epithelial cells; assay: TGFβ-induced myofibroblast formation, Western blot for smooth muscle actin; format: cell-based; conditions: 5 ng/ml TGFβ1, 72 hours, increasing doses
Protocol: NMuMg murine epithelial cells were induced to undergo transition to myofibroblasts by stimulation with 5 ng/ml TGFβ1. After 72 hours, myofibroblast differentiation was assessed by Western blot for Smooth muscle actin (SMA), a myofibroblast contractile protein. […] Thus, HF inhibited myofibroblasts formation in response to TGFβ.

[3] = test system: Primary human dermal fibroblasts; format: cell-based; conditions: 100 nM, 5 ng/ml TGFβ1
Protocol: Primary human dermal fibroblasts were seeded in a matrix of Type I collagen with 5 ng/ml TGFβ1 in the presence or absence of 100 nM HF. FIG. 7 depicts the effect of the presence and absence of HF on the behavior of TGFβ-treated dermal fibroblasts.

[4] = test system: human primary dermal fibroblasts; assay: Fibroblast-driven collagen disc contraction; format: cell-based; conditions: 100 nM, 72 hours
Protocol: Human primary dermal fibroblasts were seeded in a matrix of Type I collagen in the presence or absence of 5 ng/ml TGFβ or 100 nM HF. Collagen discs were released from attachment to the culture dish and allowed to undergo fibroblast-driven contraction for 72 hours. The area of the discs at time zero was 200 units.

[5] = in vitro; cited from earlier work
[6] = cited from earlier work

T1 sequence (Q62318 whole entry): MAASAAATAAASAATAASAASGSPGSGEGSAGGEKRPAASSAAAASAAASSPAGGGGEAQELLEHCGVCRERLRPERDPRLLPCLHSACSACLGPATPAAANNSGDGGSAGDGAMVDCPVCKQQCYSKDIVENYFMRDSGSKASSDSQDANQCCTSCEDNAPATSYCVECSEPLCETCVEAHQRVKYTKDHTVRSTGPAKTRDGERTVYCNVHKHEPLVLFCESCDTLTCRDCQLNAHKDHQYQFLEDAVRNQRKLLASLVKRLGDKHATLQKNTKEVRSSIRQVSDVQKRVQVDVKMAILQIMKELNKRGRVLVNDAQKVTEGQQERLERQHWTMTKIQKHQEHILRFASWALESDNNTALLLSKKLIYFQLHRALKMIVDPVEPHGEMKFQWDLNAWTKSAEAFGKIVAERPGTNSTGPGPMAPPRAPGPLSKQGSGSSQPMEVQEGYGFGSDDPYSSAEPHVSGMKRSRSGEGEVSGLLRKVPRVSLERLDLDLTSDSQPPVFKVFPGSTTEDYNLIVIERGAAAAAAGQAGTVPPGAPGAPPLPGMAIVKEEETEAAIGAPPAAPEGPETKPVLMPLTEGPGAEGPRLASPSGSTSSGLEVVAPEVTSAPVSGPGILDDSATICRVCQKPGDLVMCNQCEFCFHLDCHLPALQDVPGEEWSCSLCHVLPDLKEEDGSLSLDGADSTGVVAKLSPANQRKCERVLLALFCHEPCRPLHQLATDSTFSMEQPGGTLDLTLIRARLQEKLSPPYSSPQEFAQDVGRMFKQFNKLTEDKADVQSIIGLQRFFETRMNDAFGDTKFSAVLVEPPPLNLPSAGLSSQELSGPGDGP
T2 sequence (Q9WTM5 2-463 limits assumed): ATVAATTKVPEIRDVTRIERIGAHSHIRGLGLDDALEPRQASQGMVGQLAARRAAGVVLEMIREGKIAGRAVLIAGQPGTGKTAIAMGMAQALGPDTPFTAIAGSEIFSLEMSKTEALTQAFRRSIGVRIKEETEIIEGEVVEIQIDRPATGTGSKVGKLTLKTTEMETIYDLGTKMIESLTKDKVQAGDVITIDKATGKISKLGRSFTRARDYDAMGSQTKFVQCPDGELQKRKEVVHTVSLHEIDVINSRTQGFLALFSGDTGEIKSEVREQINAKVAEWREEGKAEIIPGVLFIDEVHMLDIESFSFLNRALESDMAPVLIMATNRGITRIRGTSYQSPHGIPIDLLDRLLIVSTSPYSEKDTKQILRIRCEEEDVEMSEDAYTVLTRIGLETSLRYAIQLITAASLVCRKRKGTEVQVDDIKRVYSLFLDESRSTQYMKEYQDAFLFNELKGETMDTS

Row | SMILES | ability of fibroblasts to attach and spread on collagen matrix ([1]; 200 nM, 24 hrs) | ability of fibroblasts to attach and spread on collagen matrix ([1]; as little as 30 nM) | competition by free compound for binding of TIF1β band to HF affinity resin (TIF1β; SV-MES cell lysates, excess free compound) | blocking of tagged TIF1β interaction with immobilized HF by pre-incubation (TIF1β; cloned, tagged TIF1β transfected into SV-MES cells, precipitated with HF-resin) | binding of RuvBl2 to HF (RuvBl2) | smooth muscle actin (SMA) induction [2] | fibroblast extensions and attachments to the matrix [3] | contractile activity of myofibroblasts in a collagen matrix (disc area) [4] | concentration at which it acts as an inhibitor of fibrosis [5] [nM] | excess dermal ECM deposition ([6]; animal models of wound healing and fibrotic disease, intra-peritoneally, in food or applied locally) | toxicity in vivo ([6]; in vivo)
1 | CC(C)(C)OC(=O)N1CCC[C@H](O)[C@H]1CC(=O)Cn1cnc2cc(Br)c(Cl)cc2c1=O [MAZ1310] | inactive |  |  |  |  |  |  |  |  |  | 
2 | O=C(CC1NCCCC1O)Cn1cnc2cc(Br)c(Cl)cc2c1=O (stereo not drawn) [HF, 7-bromo-6-chloro-3-[3-(3-hydroxy-2-piperidinyl)-2-oxopropyl]-4(3H)-quinazolinone] | completely fail to attach and spread | Identical results | specifically competed | blocked TIF1β interaction with immobilized HF | second HF binding protein | eliminated SMA induction | no extensions or attachments to the matrix or to one another | inhibited the contractile activity | 20 to 200 | reduces excess dermal ECM deposition | low-toxicity
